Data taken from US7129250B2, “Neuroprotective and anti-proliferative compounds” (Aegera Therapeutics Inc., priority 2000, dated 2006).
Values belong to the compound of their own block, whether it stands above or below them.

Columns and labels:
[1] = system: SHSY-5Y cells; assay: Etoposide Killing of SHSY-5Y; assay type: cell-based; conditions: etoposide 32 uM
Description: SHSY-5Y cells were grown in growth media. Cells are placed at 50,000 cells per 96 well. Four days latter the cells were treated with drug for 48 hours prior to etoposide (32 uM) treatment. On day 6 media was changed to that containing etoposide and drug for 4 hours, at which point the media was changed to media containing drug only. Cells are allowed to survive overnight and then assessed for viability with metabolic activity measured (WST-1-Beohringer Mannheime), as shown in TABLE 13.

[2] = system: SCG neurons; assay: NGF Withdrawal Killing of SCG Neurons; assay type: cell-based, Sprague-Dawley rats; conditions: Rattus norvegicus, Neuron, assayed 48 hours after drug
Source text: Cultured Superiour Cervical Ganglion (SCG) neurons of the PNS which have been sustained in media containing Neuron Growth Factor (NGF) undergo apoptotic cell death upon removal of the NGF from the cellular medium. Loss of neuronal trofin support has been implicated in various neurodegenerative disease states in the PNS, such as diabetic neuropathy and neuropahies related to chemotherapeutic and anti-HIV drug treatment.
SCG neurons were harvested from day 1 post natal Sprague-Dawley rats, plated on collagen coated plates and incubated for 5 days in the presence of 50 ng/mL NGF at 37° C. under 5% CO2. The cells were washed with NGF free media, 4 times at 1 hour intervals, at which time drug was added.

[3] = system: CGNs; assay: Cisplatin Killing of CGNs; assay type: cell-based, CD1 mice; conditions: Mus musculus; assayed 48 hours after final drug treatment
Description: Cisplatin has been used extensively in the treatment of various cancers. One dosblimiting side effect of this chemotherapeutic agent is related to hearing loss as a result of its toxicity to auditory neurons and loss of feeling in the extremities. Cisplatin induces apoptosis to both cultured CGN and cortical neurons.
CGNs were harvested from day 8/9 post-natal CD1 mice, plated on Poly-D-Lycine coated plates and incubated for 6 days at 37° C. under 5% CO2. The cells were treated with media containing drug and cisplatin […].

[4] = system: CGNs; assay: High/Low Potassium (HK/LK) assay in CGNs; assay type: cell-based
Description: Cultured CGNs which are maintained in a medium containing 26 mM potassium (high K^+ or HK) undergo cell death when the medium is changed to one containing 5 mM potassium (low K^+ or LK). HK maintains the cells in a highly polarized state, duplicating that of fully innervated neurons. The switch to LK (5 mM is more representative of physiological conditions) results in depolarization of the cells, mimicking the loss of neuronal conductivity. […] As these killer genes are turned on by various types of neuronal insult as observed in AD, PD, and stroke, HK/LK is a general in vitro model for neuronal degradation, blanketing a wide range of neurodegenerative diseases. Compounds that protect against HK/LK in CGNs would therefore be efficacious in treatment and/or prevention of various neurodegenerative disease states.
CGNs were harvested from day 8/9 post-natal CD1 mice, plated on Poly-D-Lycine coated plates and incubated for 6 days at 37° C., with […] potassium, under 5% CO2. Pretreated cells were treated with drug 24 hours prior to changing the media to one containing […] potassium and drug. Cells were assayed 16 hours after the final media change using cell TITER96 (Promega).

[5] = system: HIAP1 mRNA in LAN5 cells; assay: LAN5 HAIP1 Down Regulators (RNA levels); assay type: cell-based; conditions: HIAP1 RNA level vs control = 1.0; 24 hours drug
Description: LAN5 cells were grown in growth media. Cells were plated at cells 50,000 per well in 96 cells per 96 wells. Five days latter drug was added and the cells were liced 24 hours latter using RLT buffer.

[6] = system: DU145 prostate cancer cells; assay: Anticancer Effectiveness on Prostate Tumor Cells (Alamar Blue); assay type: cell-based, Human; conditions: for % Survival: 7 days
Description: Prostate cancer is often resistant to traditional chemotherapies. DU145 is representative prostated cancer cell line. DU145cells were cultured in the presence of various concentrations of compound 136.
Human prostate DUI45 cells were cultured in 96 well dishes. Cells were treated with various concentrations of test compounds for 7 days. Media was then removed and replaced with fresh media containing Alamar Blue. The cells were incubated for a further 4 hours and Alamar blue and conversion was assessed by fluorescence. Compound effectiveness was determined by assessing the reduction in Alamar blue bioconversion following 7 day treatment.

[7] = system: CGNs; assay: Ceramide Killing of CGNs; assay type: cell-based, CD1 mice; conditions: ceramide 100 uM; 300 nM, (250 nM in source)
Source text: Ceramide is a native […] found in most mammalian and human cells. The upregulation of endogenous ceramide has been linked to caspase 1 (ICE) induced apoptosis (Suzuki, A. et al. Exp. Cel. Res., 1997, 233, 41). In a similar fashion, the addition of ceramide to cultured CGNs results in caspase induced apoptosis, and is therefore considered an effective in vitro model for the various neurodegenerative diseases described above, which are characterized by caspase induced apoptosis, as observed in stroke models. Addition of selected compounds of the formula I through III, 24 hours prior to the addition of ceramide, to cultured CGNs provided protection against apoptosis, with 10 to 20% of the cells being saved at 1–10 μM drug concentrations (see Example 114).
CGNs were harvested from day 8/9 post-natal CD1 mice, plated on Poly-D-Lycine coated plates and incubated for 6 days at 37° C. under 5% CO2. Cells were pretreated with drug 24 hours prior to ceramide (100 uM) and drug addition.

[8] = system: CGNs; assay: Glutamate Killing of CGNs; assay type: cell-based, CD1 mice; conditions: glutamate 100 uM; 300 nM, (250 nM in source)
Source text: Glutaminergic neurons secrete the neurotransmitter glutamate as a part of normal cell signaling processes. Intracellular glutamate levels are regulated by glial cell uptake and conversion to glutamine. Under conditions of oxidative stress, as observed in various neurodegenerative diseases such as stroke, ALS, PD, and HD, glutaminergic neurons release massive amounts of glutamate into the […] fluid, overwhelming the surrounding cells. Stimulation of both NMDA and non NMDA-type glutamate excitory receptors leads to sustained depolarization of postsynaptic dendrosomal membranes, increased membrane permeability, and impaired ion homeostasis, all leading to either apoptotic or necrotic cell death.
CGNs were harvested from day 8/9 post-natal CD1 mice, plated on Poly-D-Lycine coated plates and incubated for 6 days at 37° C. under 5% CO2. Cells were pretreated with drug 24 hours prior to glutamate (100 uM) and drug addition.

- melting point: 212 to 213 °C
Structure (SMILES): O=C1NC(=O)C(n2ccc3ccccc32)=C1c1c[nH]c2ccccc12 [Compound 1, 3-(indol-1-yl)-4-(1H-indol-3-yl)-1H-pyrrole-2,5-dione]
- % SHSY-5Y cell survival ([1]; drug 1 μM): 0%
- % SHSY-5Y cell survival ([1]; drug 10 μM): 12.5%
- IC50 [2]: 20 µM
- IC50 [3]: 10 µM

- melting point: 217 to 220 °C
Structure (SMILES): O=C1NC(=O)C(n2ccc3ccccc32)=C1c1c[nH]c2ccc(OCc3ccccc3)cc12 [Compound 5, 3-(5-Benzyloxy-1H-indol-3-yl)-4-(indol-1-yl)-pyrrole-2,5-dione]
- IC50 [3]: 10 µM

- melting point: 114 to 116 °C
Structure (SMILES): O=C1NC(=O)C(n2ccc3cc(OCc4ccccc4)ccc32)=C1c1c[nH]c2ccccc12 [Compound 12, 3-(5-benzyloxyindol-1-yl)-4-(1H-indol-3-yl)-1H-pyrrole-2,5-dione]

- melting point: 141 to 144 °C
Structure (SMILES): O=C1NC(=O)C(n2ccc3ccccc32)=C1c1c[nH]c2ccc(C#Cc3ccccc3)cc12 [Compound 15, 3-(Indol-1-yl)-4-(5-(β-phenylethynyl)-indol-3-yl)-pyrrole-2,5dione]

Structure (SMILES): COc1ccc2[nH]c3c(c4c(n5c6ccccc6cc35)C(=O)NC4=O)c2c1 [Compound 47]
- inhibition of HK/LK cell death / protection of CGN neurons ([4]; 10 μM drug): (100% inhibition at 10 (μM)
- IC50 ([4]; Mus musculus, HK/LK switch, drug 24 h pre-treatment, assayed 16 h after media change, concentration at which cell death was inhibited by 50%): 3 µM
- IC50 [2]: 10 µM
- IC50 [3]: 10 µM

- Fold Induction [5]: 0.45
- melting point: 271 to 272.9 °C
Structure (SMILES): CC(=O)n1cc(C2=CC(=O)NC2=O)c2cc(Br)ccc21 [Compound 57, 3-(N-acetyl-5-bromoindol-3-yl)-1H-pyrrole-2,5-dione]

- Fold Induction [5]: 0.55
- melting point: 287 to 288 °C
Structure (SMILES): CN(C)C(=O)n1cc(C2=CC(=O)NC2=O)c2cc(Br)ccc21 [Compound 58, 3-(N-(N,N-dimethylcarbamoyl)-5-bromoindol-3-yl)-1H-pyrrole-2,5-dione]

Structure (SMILES): COc1ccc(C(=O)n2cc(C3=CC(=O)NC3=O)c3cc(OCc4ccccc4)ccc32)c(OC)c1 [Compound 67, 3-(N-(2,4-dimethoxybenzoyl)-5-benzyloxyindol-3-yl)-1H-pyrrole-2,5-dione]
- IC50 [2]: 10 µM

Structure (SMILES): Cc1ccc(S(=O)(=O)n2cc(C3=CC(=O)NC3=O)c3cc(O)ccc32)cc1 [Compound 91, 3-(N-tosyl-5-hydroxyindol-3-yl)-1H-pyrrole-2,5-dione]
- IC50 [2]: 20 µM

Structure (SMILES): O=C1C=C(c2cn(S(=O)(=O)c3cccs3)c3ccccc23)C(=O)N1 [Compound 97, 3-(N-(2-thiophenesulfonyl)indol-3-yl)-1H-pyrrole-2,5-dione]
- IC50 [2]: 10 µM

Structure (SMILES): COC(=O)C(C)(C)Cc1c(C2=CC(=O)NC2=O)c2cc(OCc3ccc4ccccc4n3)ccc2n1Cc1ccc(Cl)cc1 [Compound 109]
- IC50 [2]: 10 µM

Structure (SMILES): CN(C)CCCn1cc(C2=C(n3ccc4ccccc43)C(=O)NC2=O)c2cc(OCc3ccccc3)ccc21 [Compound 136]
- cells killed ([6]; 10 μM, after 7 days): 100%
- % Survival ([6]; 0.312 um): 102.71%
- % Survival ([6]; 0.625 um): 97.00%
- % Survival ([6]; 1.25 um): 99.61%
- % Survival ([6]; 2.5 um): 81.81%
- % Survival ([6]; 5 um): 66.75%
- % Survival ([6]; 10 um): −1.64%
- % Survival ([6]; 20 um): −1.00%
- % Survival ([6]; 40 um): 1.17%

Structure (SMILES): COC(=O)[C@@]1(O)C[C@H]2O[C@]1(C)n1c3ccccc3c3c4c(c5c6ccccc6n2c5c31)C(=O)NC4 [Compound K252a, K252a, reference compound]
- Fold Induction [5]: 0.51
- toxicity ([4]; higher doses): toxic at higher doses
- % CGN Survival [7]: 0 (250 nM) %
- % SHSY-5Y cell survival ([1]; drug 1 μM): 13.9%
- % CGN Survival [8]: 4.3 (250 nM) %
